One data set deals with IL 34. The data set can be described thus: Competitive binding assay against 21-FL. As to conditions: competition with 10 nM 21-FL, 75 nM IL 34. How it is done: (§1) To determine if selected loops have aminoglycoside preferences, the binding of five aminoglycosides, 21, kanamycin A, kanamycin B, tobramycin, and neamine (FIG. 7) to the pool of RNAs from spot 2+ (FIG. 10C) was probed using a competitive binding assay. […] We also tested a single RNA sequence identified to bind 21, IL 34, in the same manner.
(§2) A solution containing 75 nM IL 34 was refolded in 1× hybridization buffer+40 μg/mL BSA at 60° C. for 5 min. After slow cooling on the benchtop, 21-FL was added to a final concentration of 10 nM. The competing, unlabeled aminoglycoside was then added, and the resulting solution was serially diluted into 1× hybridization buffer+40 μg/mL BSA+10 nM 21-FL containing 75 nM IL 34. The solutions were equilibrated for 30 min at RT, and the fluorescence intensities were measured on a Bio-Tek HT fluorescence plate reader.

For data set [1], the target named is pool of RNAs from spot 2+. The data set can be described thus: Competitive binding assay against 21-FL. As to conditions: for Kd: competition with 10 nM 21-FL. Here is the method: as §1, §2
The target in data set [2] is 1×1 CC internal loop derived from the untranslated region in thymidylate synthase mRNA. The settings on record: 1 mM MgCl2 and CaCl2, 150 mM NaCl, 5 mM KCl, 20 mM HEPES (pH 7.5); read-out: dissociation constant; cited from earlier work.
Data set [3] deals with immobilized 6′-N-5-hexynoate kanamycin A (2) / radiolabeled IL 7. The data set can be described thus: Array-based competitive binding assay: competitor RNA against trace 32P-labeled IL 7 on immobilized 2. The settings on record: for IC50: read-out: IC50 (concentration of competitor that inhibited 50% of the binding of radioactively labeled IL 7), competitor RNA, immobilized 2 in microwells, 30 min at RT. The source says:
Typically microarray experiments can be used to probe the binding of a variety of small molecules to a single or a few analytes at once. In order to increase the number of conditions that can be probed on a single array, we affixed a silicon gasket that created 50 microwells on the surface of each chip (FIG. 5A). These microwells converted the array into a miniaturized 50-well plate that is easily functionalized to display kanamycin. Compound 2 was immobilized in each microwell at a constant concentration. Binding experiments were completed by delivering 10 μL of a solution containing serially diluted concentrations of the internal loop of interest and trace 5′end ^32P labeled IL 7 into each microwell. Dose response curves were constructed and fit to determine the concentration of competitor that inhibited 50% of the binding of the radioactively labeled RNA (FIG. 3, FIG. 5B, and FIG. 5C). FIG. 5B is a representative autoradiogram for binding selected RNAs relative to binding of control oligonucleotides R2, R3, D1 and D2, and R4, the cassette without an internal loop.
In order to determine which concentration of 2 was optimal for competitive binding assays, serially diluted 2 was applied to the chip surface and allowed to react for 2 h at RT inside the microwell of a silicon gasket (GRACE Biolabs, CWCS 50R-1.0, C-24780) (FIG. 5A). Each of the wells was washed twice with water, and the slide was dried in air. The 5′ end ^32P radiolabeled IL 7 was annealed in 1×HB+40 μg/mL of BSA at 60° C. for 5 min and allowed to slow cool on the benchtop for 10 min. It is important to note that the hybridization buffer contains 1 mM EDTA, or 50 equivalents compared to the amount of Cu^2+ used for the click reaction. […] The annealed RNA oligonucleotide was hybridized with the chip surface for 30 min at RT. […]
IC50's were determined by incubating serially diluted competitor RNA and trace radiolabeled IL 7 in microwells formed using a silicon gasket. […] The data were quantified using Bio-Rad's QuantityOne software, and the IC50's were determined using SigmaPlot's four-parameter logistical curve fit.

The test system of data set [4] is oligonucleotide mimic of the bacterial rRNA A-site. The settings on record: 6′ NH2 acetylated; cited from earlier work.
Data set [5] relates to RNA 3×3 internal loop library (R1). The data set can be described thus: Resin-based selection of RNA internal loops with immobilized kanamycin A. It is filed as binding. As to conditions: based on initial radioactivity eluted with kanamycin A; about 150 members. Here is the method: Selections were completed by incubating a solution that contained 5′ end ^32P-labeled R1 in buffer with resin-immobilized kanamycin A. In addition to R1, a variety of other oligonucleotides were added to the incubation solution (R2-R4, D1, D2). […] The small number may be due to the manner in which the ligand was immobilized onto the resin (impairs the 6′ amino group from forming stabilizing contacts with RNA).
Each of the oligonucleotides was refolded separately in Hybridization Buffer (“HB”) containing 8 mM […] pH 7.0, 1 mM EDTA, and 185 mM NaCl by heating for 5 min at 65° C. and then cooling to RT on the benchtop. Oligonucleotides were then transferred to 4° C. and mixed together. Before the oligonucleotides were hybridized with the resin, 200 μg of BSA was added to the samples. Each selection experiment was completed with 10 picomoles of 5′-end labeled R1 and 20-fold higher concentration of each control oligonucleotide (R2-R4, D1, D2) over the concentration of R1.
A 100 μL aliquot of resin slurry (10 μL of resin) was placed into a 2.5 mL BioRad column and washed 3× with 1 mL of 4° C. HB. […] At this stage, liquid scintillation counting was used to ensure that only background radioactivity was being eluted from the column. […]

The target in data set [6] is pool of RNAs harvested from position 2+. The data set can be described thus: Fluorescence-based direct binding assay with 21-FL. As to conditions: lower ligand loading position 2+.
The target of another data set is tRNAphe. The data set can be described thus: Fluorescence-based direct binding assay with 21-FL.
Data set [7] has as its target chase oligonucleotide 23 (stem mimic duplex). The data set can be described thus: Fluorescence-based direct binding assay with 21-FL. The settings on record: no change in fluorescence intensity up to 5 μM.
Data set [8] concerns the target DNA chase oligonucleotides 25+26. The data set can be described thus: Fluorescence-based direct binding assay with 21-FL. The settings on record: no change in fluorescence intensity up to 5 μM.
Data set [9] addresses chase oligonucleotide 24 (GAAA hairpin mimic). The data set can be described thus: Fluorescence-based direct binding assay with 21-FL. The settings on record: no change in fluorescence intensity up to 5 μM.
The target of the next data set is empty cassette RNA 27. The data set can be described thus: Fluorescence-based direct binding assay with 21-FL.
For the next data set, the system named is IL 16. The settings on record: in presence of 2. Here is the method: (§3) The binding site of 2 was determined by enzymatic probing of IL 7 and R4 in the presence or absence of 2 with RNase A and S1 nuclease.
The test system of the next data set is IL 1. As to conditions: in presence of 2. Here is the method: as §3
A further data set relates to hairpin cassette R4. As to conditions: RNase A and S1 nuclease, compound 0, 0.1, 1, 10, 100 μM. How it is done:
as §3
(§4) The binding site(s) of 2 was determined using a nuclease protection assay. For RNase A mapping experiments, radiolabeled oligonucleotide was annealed as described above. After slow cooling, serially diluted concentrations of 2 were added, and the resulting solution was allowed to equilibrate for 30 min at RT. Approximately 6 μunits of RNase A were added, and the reaction was allowed to proceed for 10 min. The reaction was quenched by addition of an equal volume of stop buffer, and the products were separated on a denaturing 17% polyacrylamide gel.
(§5) For S1 nuclease mapping experiments, the radiolabeled oligonucleotide was annealed as described except the buffer used was 50 mM sodium acetate (pH 4.5), 280 mM NaCl, and 4.5 mM ZnSO4. The solution was allowed to equilibrate for 30 min at RT after the addition of serially diluted concentrations of 2, and then 10 units of S1 were added. The reaction was quenched after 10 min at RT, and the products were separated on a denaturing 17% polyacrylamide gel.

A further data set deals with IL 7. The settings on record: RNase A and S1 nuclease, compound 0, 0.1, 1, 10, 100 μM. Here is the method:
as §3, §4, §5

For data set [10], the system named is RNA internal loop library 22. The settings on record: chase oligonucleotides 23-26 in excess.
Data set [11] has as its target RNA internal loop library 22. The data set can be described thus: Fluorescence-based direct binding assay with 21-FL. As to conditions: entire library.
Data set [12] addresses pool of RNAs harvested from position 1+. The data set can be described thus: Fluorescence-based direct binding assay with 21-FL. As to conditions: higher ligand loading position 1+.
The mark [13] stands for this setting: listed as 6′ hexynoate kanamycin A.

Like-named read-outs stand apart in the source and are kept apart here.

With `NC[C@H]1O[C@H](O[C@H]2[C@H](O)[C@@H](O[C@H]3O[C@H](CO)[C@@H](O)[C@H](N)[C@H]3O)[C@H](N)C[C@@H]2N)[C@H](N)[C@@H](O)[C@@H]1O` [kanamycin B], the Kd at IL 34 (read-out: Kd) was 0.005 µM; in data set [1], 0.012 µM; in data set [2], 1.1 µM.
Consider “IL 17: selected RNA internal loop (SEQ ID NO:14 series; SEQ ID NO:28), U replaced with C and closing pair GC (GGGAGAGGGUUUAAUCUUUACGAAAGUACCGAUUGGAUCCGCAAGG; listed as RNA, chemistry not given here)”, for which the “fold weaker binding relative to IL 1 and IL 2” value in data set [3] is recorded as roughly 10 fold.
Regarding `CC(=O)NCC1OC(OC2C(N)CC(N)C(OC3OC(CO)C(O)C(N)C3O)C2O)C(O)C(O)C1O` (stereo not drawn) [6′ acetylated kanamycin A], in data set [4], the “reduction in binding relative to the parent aminoglycoside” value was “several orders of magnitude”.
In the case of “IL 2: selected RNA internal loop (SEQ ID NO:13), 5′UU/3′UC 2×2 loop, one closing A-U pair in different orientation (GGGAGAGGGUUUAAUAUCUACGAAAGUAUUUAUUGGAUCCGCAAGG; listed as RNA, chemistry not given here)”, the IC50 in data set [3] stood at 0.0033 µM.
Take `NC[C@H]1O[C@H](O[C@H]2[C@H](O)[C@@H](O)[C@H](N)C[C@@H]2N)[C@H](N)[C@@H](O)[C@@H]1O` [neamine]: the Kd entry was “much weaker” at IL 34 and greater than 0.5 µM in [1].
As to `NC[C@H]1O[C@H](O[C@H]2[C@H](O)[C@@H](O[C@H]3O[C@H](CO)[C@@H](O)[C@H](N)[C@H]3O)[C@H](N)C[C@@H]2N)[C@H](O)[C@@H](O)[C@@H]1O` [kanamycin A], the Kd at IL 34 (read-out: Kd) was 0.005 µM; in data set [1] it was 0.009 µM. Moreover, in [5], the “percentage of the 4096-member library bound to immobilized ligand” value was roughly 4%.
For the molecule `NC[C@H]1O[C@H](O[C@H]2[C@H](O)[C@@H](O[C@H]3O[C@H](CO)[C@@H](O)[C@H](N)[C@H]3O)[C@H](N)C[C@@H]2N)[C@H](N)C[C@@H]1O` [tobramycin], the Kd entry on IL 34 is “much weaker”; in [1] it was 0.085 µM; in [2] it was 0.87 µM. Besides, the fold weaker binding result in data set [1] (relative to 21, kanamycin A and kanamycin B) is “approximately 9 fold”.
Take `C#CCCCC(=O)NC[C@@H]1O[C@@H](O[C@H]2[C@H](O)[C@@H](O[C@@H]3O[C@@H](CO)[C@H](O)[C@@H](N)[C@@H]3O)[C@H](N)C[C@@H]2N)[C@@H](O)[C@H](O)[C@H]1O` [Compound 21, 6′-N-5-hexynoate kanamycin A]: the Kd in [6] is 0.011 µM; at IL 34 (read-out: Kd), 0.007 µM; in [1], 0.012 µM; at tRNAphe, 0.7 µM; in data set [7], greater than 5 µM; in [8], greater than 5 µM. Further, the Kd is greater than 5 µM in data set [9], 1.3 µM at empty cassette RNA 27, 0.28 µM in [11] and 0.065 µM in data set [12]. The “DEPC modification of loop nucleotides” value in the data set on IL 16 and in the data set on IL 1 was “decreased modification” in each case. Also, the “nucleotides protected from cleavage” value was “No nucleotides in the cassette R4 are protected” in the data set with hairpin cassette R4 (listed as 2); “no nucleotides are protected from modification” in the data set on hairpin cassette R4 (setting [13]); “only nucleotides in the loop and the surrounding base pairs in IL 7 are protected from cleavage” with IL 7 (listed as 2); “occurs only in the randomized regions” in the data set with IL 7 (setting [13]). For the same molecule, in [10], the “binding of library members on the array” value was “concentration-dependent binding”.
On to “IL 1: selected RNA internal loop (SEQ ID NO:12), 5′UU/3′UC 2×2 loop closed by A-U pairs (GGGAGAGGGUUUAAUUUUUACGAAAGUAACUAUUGGAUCCGCAAGG; listed as RNA, chemistry not given here)”, for which the IC50 in data set [3] was determined as 0.0022 µM.

(Values after patent US9719191B2, “Methods for identifying ligands that target nucleic acid molecules and nucleic acid structural motifs” (The Research Foundation for The State University of New York, priority 2006, dated 2017).)
